Experimental data as given in patent publication US10816552B2 (The Governing Council of the University of Toronto, priority 2014, dated 2020).

Columns and labels:
[1] = Solubility observations; assay type: physicochemical
[2] = 1H NMR stability of Telox-2 in D2O (0.01% dDMSO); assay type: physicochemical
Description: To investigate the stability of Telox-2 compared to Telox ^1H NMR spectra of Telox-2 were collected over a period of 1 week under biologically-relevant conditions (0.01% dDMSO in D2O).

[3] = UV-Vis stability of Telox-2 in aqueous buffer; assay type: physicochemical; conditions: 200 μM, 0.01% DMSO in phosphate-buffered saline
Experimental: Concentration of Telox-2=200 μM (0.01% DMSO in phosphate-buffered saline). The small spectrum identifies the unique absorptions of the tellurophene and nitroimidazole functionalities.
An orthogonal stability assay using UV-Vis spectroscopy was performed to corroborate the NMR stability findings (FIG. 6). In this assay, UV-Vis spectra of Telox-2 were recorded at a fixed concentration in aqueous buffer over a period of 3 days. Loss of either heterocycle, tellurophene or nitroimidazole, as a result of degradation would be expected to cause a decrease in absorbance at 282 and/or 325 nm respectively.

[4] = tested on: HCT116 cells; experiment: Mass cytometry hypoxia labelling (130Te signal); assay type: cell-based
Description: FIGS. 4A-E show a schematic representation and density maps and plots. FIG. 4A is a schematic representation of Telox/Telox2 cell labelling for analysis via mass cytometry on a second-generation CyTOF instrument. FIG. 4b) is a density map of signal event length vs. ^130Te signal (arbitrary units). FIG. 4c) is a density plot output from the top-right gate in b) of ^193Ir signal (arbitrary units) vs. ^103Rh signal (arbitrary units). More than 93% of detected events fall in the square gate. FIG. 4d) is a density plot output from the bottom-left gate in b) of ^193Ir signal (arbitrary units) vs. ^103Rh signal (arbitrary units). More than 89% of detected events fall in the square gate. FIG. 4e) is a population histograms of cell ^130Te content (arbitrary units). Oxygen concentrations are listed as numerical percentages, P=Pimonidazole (100 μM). Blue and red histograms are Pimonidazole-negative controls. Orange and green histograms are Pimonidazole- positive competition experiments. Note: warmer colors in density plots indicate higher cell population density.
FIGS. 8A and B show a) the absolute ^130Te signal as a function of concentration as determined by mass cytometry analysis of HCT116 cells incubated with the exemplary compound, Telox-2, for 3 hours in either near-anoxic (˜0% O2), hypoxic (˜1% O2) or normoxic (21% O2) atmosphere; and b) the signal-to-noise (fold-change) representation of the data presented in part a.
FIGS. 9A-D show a) Absolute ^130Te signal as a function of time as determined by mass cytometry analysis of HCT116 cells incubated with 10 μM of the exemplary compound,Telox-2 (constant exposure), in either near-anoxic (˜0% O2), hypoxic (˜1% O2) or normoxic (21% O2) atmosphere; b) the signal-to-noise (fold-change) representation of the data presented in part a; and c) the absolute ^130Te signal as a function of time as determined by mass cytometry analysis of HCT116 cells incubated with 10 μM Telox-2 for 3 hours followed by replacement of Telox-2-containing media with fresh media in either near-anoxic (˜0% O2), hypoxic (˜1% O2) or normoxic (21% O2) atmosphere; and d) the signal-to-noise (fold-change) representation of the data presented in part c.
HCT116 (500,000) cells were seeded in 60 mm plastic petri dishes (Corning Inc., NY) and incubated for 24 h at 37° C., 21% O2/5% CO2. The cells were transferred to hypoxia chambers (H35/H85 hypoxia workstation, Don Whitley Scientific) maintained at 1%/0.2% or <0.02% O2 for 3 h. Hypoxia experiments (<0.02% O2) were performed by seeding the cells in 60 mm glass plates (Corning Inc., NY).
HCT 116 cells (see sections i and ii) were incubated in media containing Telox or Telox2 (100 μM, added as a neat solution in sterile DMSO; final [DMSO]=0.1%) for 3 hours under atmosphere containing an appropriate concentration of O2. Following incubation, the media was removed, cells were washed with sterile PBS, and then separated from the incubation plate via trypsinization (37° C., 10 min) and gentle scraping. The cell suspension was pelleted and resuspended in PBS containing β-ME (1.0 mL, 100 mM). Cells were pelleted, resuspended in PBS (900 μL, no β-ME), and fixed with formaldehyde (100 μL, 37% solution) for 25 minutes. Following fixation, cells were pelleted, resuspended in PBS containing β-ME (1.0 mL, 100 mM), and pelleted once again. Cells were then resuspended in PBS ([…], no β-ME) and incubated with either the Ir-containing nucleic acid intercalator (hypoxic cells) or the Rh containing nucleic acid intercalator (normoxic cells) (10 μL, 100 μM solution in sterile PBS) for 20 minutes. Cells were then pelleted and resuspended in PBS (1.0 mL, no β-ME) twice. Cell pellets were then resuspended in PBS containing ^151/153EU beads (1/10 dilution of CyTOF® calibration beads, DVS Sciences, 1.0-2.5 mL depending on pellet size). The two cells samples were then combined (250 μL of each) and 250 μL of the resultant sample was injected onto a second-generation CyTOF® instrument for MC analysis. […]

SMILES: O=[N+]([O-])c1nccn1CCc1ccc[te]1 [Telox-2, 2-nitro-1-(2-(tellurophen-2-yl)ethyl)-1H-imidazole]
- solubility, in words [1]: unusually high water solubility
- degradation by 1H NMR over 1 week ([2]; 0.01% dDMSO in D2O, 1 week, 200 μM): no observable degradation
- aggregate or micelle formation in aqueous solution (1H NMR peak broadening) ([2]; high concentrations (2 mM)): does not form aggregates or micelles
- change in absorbance at 282 and/or 325 nm over 3 days [3]: No change in absorbance
- signal-to-noise vs incubation time, constant exposure ([4]; HCT116, 10 μM, near-anoxic and moderately hypoxic vs normoxic control): enhanced as incubation time increases
- signal-to-noise under moderately hypoxic conditions vs near-anoxic ([4]; HCT116, 1% O2): significantly lower
- loss of probe-protein conjugates after pulsed exposure ([4]; HCT116, 3 hours exposure then fresh media up to additional 21 hours): exponential-type decay
- optimal probe concentration to maximize signal-to-noise ([4]; HCT116, 3 hours, normoxic vs near-anoxic): 10 µM
